From patent publication US8017775B2, “1-2-dihydroquinoline derivative having glucocorticoid receptor binding activity” (Santen Pharmaceutical Co., Ltd., priority 2005, dated 2011)

Molecular target: T1, Recombinant human GR (Homo sapiens, UniProt P04150)
T1 construct: purchased Invitrogen P2816
T1 sequence (P04150 1-777): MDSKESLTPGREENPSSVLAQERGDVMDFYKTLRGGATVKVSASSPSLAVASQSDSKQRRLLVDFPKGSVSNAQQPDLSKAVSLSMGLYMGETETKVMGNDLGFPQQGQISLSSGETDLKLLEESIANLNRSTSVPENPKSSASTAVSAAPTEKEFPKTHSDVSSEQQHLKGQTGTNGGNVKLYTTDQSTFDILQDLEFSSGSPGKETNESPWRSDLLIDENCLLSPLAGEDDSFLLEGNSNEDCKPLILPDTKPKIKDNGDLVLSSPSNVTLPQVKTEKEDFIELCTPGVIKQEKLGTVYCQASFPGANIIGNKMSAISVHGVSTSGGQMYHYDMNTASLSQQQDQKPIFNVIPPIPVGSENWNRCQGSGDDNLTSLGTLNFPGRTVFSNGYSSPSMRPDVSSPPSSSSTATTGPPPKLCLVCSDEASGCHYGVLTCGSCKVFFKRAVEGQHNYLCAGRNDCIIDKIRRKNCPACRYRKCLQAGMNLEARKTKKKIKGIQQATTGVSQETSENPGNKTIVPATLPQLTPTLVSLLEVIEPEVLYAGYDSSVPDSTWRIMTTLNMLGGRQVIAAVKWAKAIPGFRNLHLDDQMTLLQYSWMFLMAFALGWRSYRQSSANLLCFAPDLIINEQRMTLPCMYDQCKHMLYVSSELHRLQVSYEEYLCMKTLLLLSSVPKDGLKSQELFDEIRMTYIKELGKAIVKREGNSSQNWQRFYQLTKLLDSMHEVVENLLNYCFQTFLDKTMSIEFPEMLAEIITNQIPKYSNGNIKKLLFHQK
Assay: GR competitor assay by fluorescence polarization (GR binding ratio)
Settings: positive control 2 mM dexamethasone, a GR binding ratio of 100% or more is indicated by 100%
Method: 1. Evaluation Test for Binding Activity to Glucocorticoid Receptor (hereinafter referred to as “GR”)
In order to evaluate a binding activity to GR, a receptor competitor assay was carried out by a fluorescence polarization method. In the assay, a GR competitor assay kit (manufactured by Invitrogen, cat No. P2816) was used, and a procedure was carried out according to the protocol attached to the kit. Hereinafter, the specific method will be described.
GR screening buffer: A buffer containing 10 mM potassium phosphate (pH 7.4), 20 mM sodium molybdate (Na2MoO4), 0.1 mM ethylene diamine tetraacetic acid (EDTA), 5 mM dithiothreitol (DTT), 0.1 mM stabilizing peptide and 2% dimethylsulfoxide was prepared.
4×GS1 solution: Fluormone™ GS1, which is a fluorescent glucocorticoid ligand, was diluted with GR screening buffer, whereby a 4 nM solution was prepared.
4×GR solution: Recombinant human GR was diluted with GR screening buffer, whereby a 16 nM solution was prepared.
After a test compound was dissolved in dimethylsulfoxide, the resulting solution was diluted with GR screening buffer, whereby a 20 μM test compound solution was prepared.
1) The test compound solution was added in an amount of 25 μL or 10 μL into each well of a 96-well or 384-well plate, and then, 4×GS1 solution and 4×GR solution were added in an amount of 12.5 μL or 5 μL into each well, respectively.
2) The plate was incubated in a dark place at room temperature for 2 to 4 hours.
3) By using a multimode plate reader, Analyst™ HT (manufactured by LJL Biosystems), fluorescence polarization of each well was measured. As the blank, a well containing GR screening buffer in place of the test compound and 4×GS1 solution was used.
4) The same procedure as that in the above 1) to 3) was carried out except that GR screening buffer was used in place of the test compound solution, and the obtained result was taken as the negative control.
5) The same procedure as that in the above 1) to 3) was carried out except that 2 mM dexamethasone was used in place of the test compound solution, and the obtained result was taken as the positive control.
A GR binding ratio (%) was calculated from the following equation.
GR binding ratio (%)=100×[1−(fluorescence polarization of test compound solution−fluorescence polarization of positive control solution)/(fluorescence polarization of negative control solution−fluorescence polarization of positive control solution)]

Compound	GR Binding ratio (%)
COc1cc(F)c(F)cc1-c1ccc2c(c1COc1ccccc1C)C(C)=CC(C)(C)N2 [Compound 3-45, 6-(4,5-Difluoro-2-methoxyphenyl)-5-(2-methylphenoxymethyl)-2,2,4-trimethyl-1,2-dihydroquinoline]	98
COc1ccc(C)cc1OCc1c(-c2ccc(F)cc2OC)ccc2c1C(C)=CC(C)(C)N2 [Compound 3-59, 6-(4-Fluoro-2-methoxyphenyl)-5-(2-methoxy-5-methylphenoxymethyl)-2,2,4-trimethyl-1,2-dihydroquinoline]	≥ 100
COc1cc(F)ccc1-c1ccc2c(c1COc1cc(C)cc(C)c1C)C(C)=CC(C)(C)N2 [Compound 3-44, 6-(4-Fluoro-2-methoxyphenyl)-5-(2,3,5-trimethylphenoxymethyl)-2,2,4-trimethyl-1,2-dihydroquinoline]	98
COc1cc(F)ccc1-c1ccc2c(c1COc1ccccc1CCO)C(C)=CC(C)(C)N2 [Compound 3-68, 6-(4-Fluoro-2-methoxyphenyl)-5-[2(2-hydroxyethyl)phenoxymethyl)-2,2,4-trimethyl-1,2-dihydroquinoline]	≥ 100
CCc1ccccc1OCc1c(-c2ccc(F)cc2OC)ccc2c1C(C)=CC(C)(C)N2 [Compound 3-33, 5-(2-Ethylphenoxymethyl)-6-(4-fluoro-2-methoxyphenyl)-2,2,4-trimethyl-1,2-dihydroquinoline]	≥ 100

More lines, now with the values ahead:

GR Binding ratio (%)	Compound
≥ 100	C=CCOc1ccc(-c2ccc3c(c2COc2cc(F)ccc2C)C(C)=CC(C)(C)N3)c(OC)c1 [Compound 15-7, 6-(4-Allyloxy-2-methoxyphenyl)-5-(5-fluoro-2-methylphenoxymethyl)-2,2,4-trimethyl-1,2-dihydroquinoline]
≥ 100	COc1cc(F)ccc1-c1ccc2c(c1COC(=O)c1cc(C)cs1)C(C)=CC(C)(C)N2 [Compound 12-21, 6-(4-Fluoro-2-methoxyphenyl)-5-[(4-methylthiophen-2-yl)carbonyloxymethyl]-2,2,4-trimethyl-1,2-dihydroquinoline]
≥ 100	COc1ccc([N+](=O)[O-])cc1-c1ccc2c(c1COc1cc(F)ccc1C)C(C)=CC(C)(C)N2 [Compound 14-48, 5-(5-Fluoro-2-methylphenoxymethyl)-6-(2-methoxy-5-nitrophenyl)-2,2,4-trimethyl-1,2-dihydroquinoline]
98	COc1cc(F)ccc1-c1ccc2c(c1CNc1cccc(C)c1)C(C)=CC(C)(C)N2 [Compound 6-36, 6-(4-Fluoro-2-methoxyphenyl)-5-(3-methylphenylaminomethyl)-2,2,4-trimethyl-1,2-dihydroquinoline]
≥ 100	C=CCc1ccccc1OCc1c(-c2cc(F)ccc2OC)ccc2c1C(C)=CC(C)(C)N2 [Compound 14-45, 5-(2-Allylphenoxymethyl)-6-(5-fluoro-2-methoxyphenyl)-2,2,4-trimethyl-1,2-dihydroquinoline]
≥ 100	COc1cc(F)ccc1-c1ccc2c(c1CNc1cc(F)ccc1C)C(C)=CC(C)(C)N2 [Compound 6-57, 6-(4-Fluoro-2-methoxyphenyl)-5-(5-fluoro-2-methylphenylaminomethyl)-2,2,4-trimethyl-1,2-dihydroquinoline]
≥ 100	COc1ccc(C)cc1NCc1c(-c2ccc(F)cc2OC)ccc2c1C(C)=CC(C)(C)N2 [Compound 6-43, 6-(4-Fluoro-2-methoxyphenyl)-5-(2-methoxy-5-methylphenylaminomethyl)-2,2,4-trimethyl-1,2-dihydroquinoline]
≥ 100	COc1ccccc1NCc1c(-c2cc(C)ccc2OC)ccc2c1C(C)=CC(C)(C)N2 [Compound 6-76, 6-(2-Methoxy-5-methylphenyl)-5-(2-methoxyphenylaminomethyl)-2,2,4-trimethyl-1,2-dihydroquinoline]
